Experimental data from US5948662A, “Bacillus-derived transglutaminase” (Ajinomoto Co., Inc., priority 1995, dated 1999).
Where two headings read alike, the source gives them in different places.

Assays:
[1] = test system: Bacillus subtilis-derived TG reported by Ramanujam et al.; settings: cited from earlier work
[2] = biological target: T1, Bacillus subtilis AJ1307-derived TG (TG-1) (Bacillus subtilis, UniProt P40746, D22N); type: biochemical; settings: for Influence of reagent on TG activity (in words): TG-1, summary of Table 1; for Remaining Activity (relative value): pH 7.5, 37° C.
T1 construct: The thus-obtained cells were used as the starting material, from which TG was purified in the manner mentioned below; endogenous in cells; host or cells: Bacillus subtilis AJ1307 (enzyme solubilized from spores and purified to a single band)
T1 sequence (P40746 whole entry D22N): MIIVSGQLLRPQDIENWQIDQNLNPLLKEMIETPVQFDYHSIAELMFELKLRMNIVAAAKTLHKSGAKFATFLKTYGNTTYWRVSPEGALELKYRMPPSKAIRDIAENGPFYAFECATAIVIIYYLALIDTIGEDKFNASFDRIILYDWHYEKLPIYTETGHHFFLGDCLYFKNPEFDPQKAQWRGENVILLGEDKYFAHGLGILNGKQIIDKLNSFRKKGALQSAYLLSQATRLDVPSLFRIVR
Protocol: The TG activity of the enzyme liquids obtained below was determined according to an enzymatic activity measuring method, which is as follows. […] The thus-counted value was referred to as the TG activity of the enzyme liquid.
Effects, if any, of various reagents on the TG activity were checked. The reagents tested herein were N-ethylmaleimide (NEM), cystamine, phenylmethanesulfonyl fluoride (PMSF), ammonium sulfate, sodium sulfate, EDTA, EGTA, calcium chloride, dithiothreitol (DTT) and 2-mercaptoethanol (2-ME). All were bought from Nacalai Tesque, Inc.
As the enzyme source, the previously-prepared pure TG fraction was used at a concentration of 2 μg/ml. The protein concentration was measured, using a protein assay kit (produced by Bio Rad Co.).
To measure the TG activity, the above-mentioned method of using ^1 4C-labeled putrescine and dimethylcasein as the substrates (at pH of 7.5 and at 37° C.) was employed. As the enzyme source, the previously-prepared pure TG fraction was used at a concentration of 2 μg/ml. The reaction was conducted at 37° C. for 30 minutes.
The TG activity was measured in the following manner. The above-mentioned pure TG fraction was mixed with each one of the reagents that had been adjusted to have a suitable concentration and then left on ice for 30 minutes. The solution of the enzyme source thus reacted with each reagent was adjusted to have a TG concentration of 2 μg/ml and then reacted with the substrates, whereupon the TG activity still remained in the resulting reaction system was measured (at pH of 7.5 and at 37° C.).

[3] = biological target: T2, Bacillus subtilis AJ12866-derived TG (TG-2) (Bacillus subtilis, UniProt P40746); assay: Influence of reagents on TG activity (TG active fraction after gel permeation, TG-2); settings: for Remaining Activity (relative value): control = 100
T2 sequence (P40746 1-245): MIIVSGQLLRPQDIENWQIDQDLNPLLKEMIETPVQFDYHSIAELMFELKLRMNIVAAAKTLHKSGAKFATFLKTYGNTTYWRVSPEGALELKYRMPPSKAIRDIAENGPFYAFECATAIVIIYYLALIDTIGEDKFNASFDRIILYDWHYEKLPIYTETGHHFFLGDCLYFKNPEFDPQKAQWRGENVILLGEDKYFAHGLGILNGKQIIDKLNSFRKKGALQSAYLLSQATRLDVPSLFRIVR
Protocol: The method for measuring the enzymatic activity as employed herein was as follows. 50 μl of a reaction system (100 mM Tris-HCl, pH 7.5, 6.3 mg/ml dimethylcasein, 10 nM ^14 C-putrescine, 1.2 μCi) containing 10 μl of the enzyme sample to be measured was kept at 37° C. for 30 minutes thereby to make the substrates reacted. After the reaction, 40 μl of the reaction mixture was adsorbed onto filter paper. In the reaction mixture, the putrescine was reacted with the dimethylcasein due to the catalysis of the TG therein. A bonded reaction product of the putrescine and the dimethylcasein was adsorbed on the filter paper. By adding 10% TCA thereto, the bonded reaction product was fixed on the filter paper. Then, the filter paper was washed three times with a 5% TCA solution, and the ^1 4C radioactivity as fixed to the filter paper was counted with a liquid scintillation counter. The value thus measured corresponds to the relative TG activity of the enzyme sample.
The cells of Bacillus subtilis AJ12866 strain were suspended in a reaction system (0.5 mg/ml lysozyme, 20 μg/ml DNase I, 0.1 M Tris-HCl (pH 7.5), 2 mM DTT, 1 mM EDTA, 2 mM PMSF) and reacted on ice for 2 hours whereby the cells were lysed. The resulting reaction mixture was centrifuged at 20,000×g for 20 minutes, and the precipitate fraction thus obtained was suspended in a washing system (0.1 M Tris-HCl (pH 7.5), 1 mM EDTA, 2 mM PMSF). The resulting suspension was centrifuged, and the precipitate was collected. This operation was repeated for a total of two times.
The thus-obtained precipitate fraction was suspended in a buffer (0.1 M sodium carbonate (pH 10), 1 mM EDTA, 2 mM PMSF) and left at 37° C. for 30 minutes. Meanwhile, a part of the substances that had existed in the precipitate fraction were dissolved in the buffer and the TG activity was transferred to the soluble fraction. […] The pH of the supernatant was adjusted to 6.0 by adding acetic acid thereto. This is referred to as a crude enzyme liquid. The crude enzyme liquid was concentrated by ultrafiltration and then dialyzed against a buffer (50 mM Tris-HCl (pH 7.5), 0.1 M NaCl), whereby the buffer was exchanged. The resulting crude enzyme liquid was subjected to gel permeation, and the TG active fraction thus eluted was collected. The enzymatic properties of the fraction were measured.

[4] = agent concentration 10 (unit not given), control = 100
[5] = agent concentration 5 (unit not given), control = 100

For O[C@H](CS)[C@H](O)CS (racemic) [DTT, dithiothreitol], the “Influence of reagent on the activity of the reported TG (in words)” value [1] is given as “inhibited”, the “Influence of reagent on TG activity (in words)” value [2] is given as “not inhibited” and the “Remaining Activity (relative value)” value [2, 4] is given as 119. The “Increase of TG activity in the presence of DTT” value ([3]; 1 mM of DTT) was at least 1.5 times and the “Influence of reagent on TG activity (in words)” value ([3]; TG-2, Ca^2+ at 5 mM or more) was “not inhibited”.

For OCCS [2-ME, 2-mercaptoethanol], the “Influence of reagent on TG activity (in words)” value [2] was “not inhibited”, the “Remaining Activity (relative value)” value [2, 4] was 111 and the “Remaining Activity (relative value)” value ([3]; agent concentration 10 mM) was 122.

For N.N.O=S(=O)(O)O [(NH4)2 SO4, ammonium sulfate], the “Influence of reagent on TG activity (in words)” value [2] was “inhibited”, the “Remaining Activity (relative value)” value [2, 4] was 1 and the “Influence of reagent on TG activity (in words)” value ([3]; TG-2, Ca^2+ at 5 mM or more) was “greatly inhibited”. The “Remaining Activity (relative value)” value ([3]; agent concentration 10 mM) was 3.

For [Ca+2].[Cl-].[Cl-] [CaCl2, calcium chloride], the “Influence of Ca^2+ on the reported TG (in words)” value ([1]; Ca^2+ of 5 mM or more) is listed as “inhibited”, the “TG activity maintained in the presence of Ca2+” value ([2]; Ca2+ of not less than 5 mM) is listed as “not less than 50%” and the “Remaining Activity (relative value)” value [2, 5] is listed as 65. For the same molecule, the “Influence of reagent on TG activity (in words)” value ([3]; TG-2, Ca^2+ at 5 mM or more) was “not inhibited”.

In the case of O=C(O)CN(CCN(CC(=O)O)CC(=O)O)CC(=O)O [EDTA, ethylenediamine-tetraacetic acid], the “Influence of reagent on TG activity (in words)” value [2] is reported as “not inhibited”, the “Remaining Activity (relative value)” value [2, 4] is reported as 107 and the “Influence of reagent on TG activity (in words)” value [3] is reported as “almost no influence”.

In the case of O=C(O)CN(CCOCCOCCN(CC(=O)O)CC(=O)O)CC(=O)O [EGTA], the “Influence of reagent on the activity of the reported TG (in words)” value [1] is listed as “greatly inhibited”, the “Influence of reagent on TG activity (in words)” value [2] is listed as “not inhibited” and the “Remaining Activity (relative value)” value [2, 4] is listed as 98. For the same molecule, the “Remaining Activity (relative value)” value ([3]; agent concentration 10 mM) was 94.

For CCN1C(=O)C=CC1=O [NEM, N-ethylmaleimide], the “Influence of reagent on TG activity (in words)” value [2] was “inhibited”, the “Remaining Activity (relative value)” value ([2]; agent concentration 1 (unit not given), TG not reacted with reagent = 100, 30 min on ice with reagent) was 17 and the “Influence of reagent on TG activity (in words)” value ([3]; TG-2, Ca^2+ at 5 mM or more) was “greatly inhibited”.

In the case of O=S(=O)([O-])[O-].[Na+].[Na+] [Na2 SO4, sodium sulfate], the “Influence of reagent on TG activity (in words)” value [2] is reported as “not inhibited”, the “Remaining Activity (relative value)” value [2, 4] is reported as 87 and the “Remaining Activity (relative value)” value ([3]; agent concentration 10 mM) is reported as 85.

With O=S(=O)(F)Cc1ccccc1 [PMSF, phenylmethanesulfonyl fluoride] the “Remaining Activity (relative value)” value [2, 5] was 89 and the “Remaining Activity (relative value)” value ([3]; agent concentration 5 mM) was 95.

For NCCSSCCN [cystamine], the “Influence of reagent on TG activity (in words)” value [2] was “inhibited”, the “Remaining Activity (relative value)” value ([2]; agent concentration 2 (unit not given), control = 100) was 0 and the “Influence of reagent on TG activity (in words)” value ([3]; TG-2, Ca^2+ at 5 mM or more) was “greatly inhibited”.
